Results published in ChEMBL document CHEMBL1201862, “PubChem BioAssay data set” (2004).
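Growth conditions: 96-well plates. Treatment: test compound, 48 hours, 5 concentrations. Analysis: linear interpolation between bracketing concentrations; unreached endpoints set to highest concentration. GI50 is the concentration that inhibits growth by half.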 Activity calls are given as the source filed them. No stated cut-off is given here; in the data, active = GI50 up to about 1.1 µM and inactive = higher.

What was measured:
Assay in all cases: NCI-60 cell line screen, 48 h
786-0 = tested on: 786-0
A549 = tested on: A549
ACHN = tested on: ACHN
CAKI-1 = tested on: CAKI-1
CCRF-CEM = tested on: CCRF-CEM
COLO 205 = tested on: COLO 205
DU-145 = tested on: DU-145
EKVX = tested on: EKVX
HCC 2998 = tested on: HCC 2998
HCT-116 = tested on: HCT-116
HCT-15 = tested on: HCT-15
HL-60 = tested on: HL-60
HOP-62 = tested on: HOP-62
HOP-92 = tested on: HOP-92
HT-29 = tested on: HT-29
Hs-578T = tested on: Hs-578T
IGROV-1 = tested on: IGROV-1
K562 = tested on: K562
KM12 = tested on: KM12
LOX IMVI = tested on: LOX IMVI
M14 = tested on: M14
MCF7 = tested on: MCF7
MDA-MB-231 = tested on: MDA-MB-231
MDA-MB-435 = tested on: MDA-MB-435
MDA-N = tested on: MDA-N
MOLT-4 = tested on: MOLT-4
Malme-3M = tested on: Malme-3M
NCI-H226 = tested on: NCI-H226
NCI-H23 = tested on: NCI-H23
NCI-H460 = tested on: NCI-H460
NCI-H522 = tested on: NCI-H522
NCI/ADR-RES = tested on: NCI/ADR-RES
OVCAR-3 = tested on: OVCAR-3
OVCAR-4 = tested on: OVCAR-4
OVCAR-5 = tested on: OVCAR-5
OVCAR-8 = tested on: OVCAR-8
PC-3 = tested on: PC-3
RPMI-8226 = tested on: RPMI-8226
RXF 393 = tested on: RXF 393
SF-268 = tested on: SF-268
SF-295 = tested on: SF-295
SF-539 = tested on: SF-539
SK-MEL-28 = tested on: SK-MEL-28
SK-MEL-2 = tested on: SK-MEL-2
SK-MEL-5 = tested on: SK-MEL-5
SK-OV-3 = tested on: SK-OV-3
SN12C = tested on: SN12C
SNB-19 = tested on: SNB-19
SNB-75 = tested on: SNB-75
SR = tested on: SR
SW-620 = tested on: SW-620
T47D = tested on: T47D
TK-10 = tested on: TK-10
U-251 = tested on: U-251
UACC-257 = tested on: UACC-257
UACC-62 = tested on: UACC-62
UO-31 = tested on: UO-31
A498 = tested on: A498

## COc1c(C(=O)/C(=N/Nc2ccccc2)C(C)=O)c(O)c(OC)c2occc12
786-0
  GI50: > 100 µM (inactive)
A549
  GI50: 52.6 µM (inactive)
ACHN
  GI50: 50.4 µM (inactive)
CAKI-1
  GI50: > 100 µM (inactive)
CCRF-CEM
  GI50: 74.1 µM (inactive)
COLO 205
  GI50: 32.2 µM (inactive)
DU-145
  GI50: > 100 µM (inactive)
EKVX
  GI50: 22.2 µM (inactive)
HCC 2998
  GI50: 82.4 µM (inactive)
HCT-116
  GI50: 34 µM (inactive)
HCT-15
  GI50: 56.2 µM
HL-60
  GI50: 22.6 µM (inactive)
HOP-62
  GI50: 97.5 µM (inactive)
HOP-92
  GI50: 9.38 µM (inactive)
HT-29
  GI50: 37.3 µM (inactive)
Hs-578T
  GI50: 37.5 µM (inactive)
IGROV-1
  GI50: 67.9 µM (inactive)
K562
  GI50: 53.5 µM (inactive)
KM12
  GI50: 27.7 µM (inactive)
LOX IMVI
  GI50: 45.9 µM (inactive)
M14
  GI50: > 100 µM (inactive)
MCF7
  GI50: 25.4 µM (inactive)
MDA-MB-231
  GI50: 18.5 µM (inactive)
MDA-MB-435
  GI50: 34 µM (inactive)
MDA-N
  GI50: 32.1 µM (inactive)
MOLT-4
  GI50: 48.3 µM (inactive)
Malme-3M
  GI50: 24.5 µM (inactive)
NCI-H226
  GI50: 52.1 µM (inactive)
NCI-H23
  GI50: 33.3 µM (inactive)
NCI-H460
  GI50: 38.8 µM (inactive)
NCI-H522
  GI50: 41.8 µM (inactive)
NCI/ADR-RES
  GI50: 56.5 µM (inactive)
OVCAR-3
  GI50: 67.9 µM (inactive)
OVCAR-4
  GI50: > 100 µM (inactive)
OVCAR-5
  GI50: > 100 µM (inactive)
OVCAR-8
  GI50: 62.2 µM (inactive)
PC-3
  GI50: 27 µM (inactive)
RPMI-8226
  GI50: 17.2 µM (inactive)
RXF 393
  GI50: 13.7 µM (inactive)
SF-268
  GI50: > 100 µM (inactive)
SF-295
  GI50: 48.9 µM (inactive)
SF-539
  GI50: > 100 µM (inactive)
SK-MEL-28
  GI50: > 100 µM (inactive)
SK-MEL-2
  GI50: 67 µM (inactive)
SK-MEL-5
  GI50: 13.7 µM (inactive)
SK-OV-3
  GI50: 65.2 µM (inactive)
SN12C
  GI50: 63.7 µM (inactive)
SNB-19
  GI50: 36.1 µM (inactive)
SNB-75
  GI50: 19.8 µM (inactive)
SR
  GI50: 35.8 µM (inactive)
SW-620
  GI50: 77.8 µM (inactive)
T47D
  GI50: 19.3 µM (inactive)
TK-10
  GI50: 77.1 µM (inactive)
U-251
  GI50: 59.7 µM (inactive)
UACC-257
  GI50: 34.9 µM (inactive)
UACC-62
  GI50: 20.5 µM (inactive)
UO-31
  GI50: 17.2 µM (inactive)

## COc1ccc(CCN2CCOCC2)cc1
786-0
  GI50: > 100 µM (inactive)
A498
  GI50: > 100 µM (inactive)
A549
  GI50: > 100 µM (inactive)
ACHN
  GI50: > 100 µM (inactive)
CAKI-1
  GI50: > 100 µM (inactive)
CCRF-CEM
  GI50: > 100 µM (inactive)
COLO 205
  GI50: > 100 µM (inactive)
DU-145
  GI50: > 100 µM (inactive)
EKVX
  GI50: > 100 µM (inactive)
HCC 2998
  GI50: > 100 µM (inactive)
HCT-116
  GI50: > 100 µM (inactive)
HCT-15
  GI50: > 100 µM
HL-60
  GI50: > 100 µM (inactive)
HOP-62
  GI50: > 100 µM (inactive)
HOP-92
  GI50: > 100 µM (inactive)
HT-29
  GI50: > 100 µM (inactive)
Hs-578T
  GI50: > 100 µM (inactive)
IGROV-1
  GI50: > 100 µM (inactive)
K562
  GI50: > 100 µM (inactive)
KM12
  GI50: > 100 µM (inactive)
LOX IMVI
  GI50: > 100 µM (inactive)
M14
  GI50: > 100 µM (inactive)
MCF7
  GI50: > 100 µM (inactive)
MDA-MB-231
  GI50: > 100 µM (inactive)
MDA-MB-435
  GI50: > 100 µM (inactive)
MDA-N
  GI50: > 100 µM (inactive)
MOLT-4
  GI50: > 100 µM (inactive)
Malme-3M
  GI50: > 100 µM (inactive)
NCI-H226
  GI50: > 100 µM (inactive)
NCI-H23
  GI50: > 100 µM (inactive)
NCI-H460
  GI50: > 100 µM (inactive)
NCI-H522
  GI50: > 100 µM (inactive)
NCI/ADR-RES
  GI50: > 100 µM (inactive)
OVCAR-3
  GI50: 41.8 µM (inactive)
OVCAR-5
  GI50: > 100 µM (inactive)
PC-3
  GI50: > 100 µM (inactive)
RPMI-8226
  GI50: > 100 µM (inactive)
RXF 393
  GI50: > 100 µM (inactive)
SF-268
  GI50: > 100 µM (inactive)
SF-295
  GI50: > 100 µM (inactive)
SF-539
  GI50: > 100 µM (inactive)
SK-MEL-28
  GI50: > 100 µM (inactive)
SK-MEL-2
  GI50: > 100 µM (inactive)
SK-MEL-5
  GI50: > 100 µM (inactive)
SK-OV-3
  GI50: > 100 µM (inactive)
SN12C
  GI50: > 100 µM (inactive)
SNB-19
  GI50: > 100 µM (inactive)
SR
  GI50: > 100 µM (inactive)
SW-620
  GI50: > 100 µM (inactive)
T47D
  GI50: > 100 µM (inactive)
TK-10
  GI50: > 100 µM (inactive)
U-251
  GI50: > 100 µM (inactive)
UACC-257
  GI50: > 100 µM (inactive)
UACC-62
  GI50: > 100 µM (inactive)
UO-31
  GI50: > 100 µM (inactive)

## CC(O)CC(O)(C(F)(F)F)C(F)(F)F (stereo not drawn)
786-0
  GI50: > 10 µM (inactive)
A498
  GI50: > 10 µM (inactive)
A549
  GI50: > 10 µM (inactive)
ACHN
  GI50: > 10 µM (inactive)
CAKI-1
  GI50: > 10 µM (inactive)
CCRF-CEM
  GI50: > 10 µM (inactive)
COLO 205
  GI50: > 10 µM (inactive)
DU-145
  GI50: > 10 µM (inactive)
EKVX
  GI50: > 10 µM (inactive)
HCC 2998
  GI50: > 10 µM (inactive)
HCT-116
  GI50: > 10 µM (inactive)
HCT-15
  GI50: > 10 µM
HL-60
  GI50: > 10 µM (inactive)
HOP-62
  GI50: > 10 µM (inactive)
HT-29
  GI50: > 10 µM (inactive)
Hs-578T
  GI50: > 10 µM (inactive)
IGROV-1
  GI50: > 10 µM (inactive)
K562
  GI50: > 10 µM (inactive)
KM12
  GI50: > 10 µM (inactive)
LOX IMVI
  GI50: > 10 µM (inactive)
M14
  GI50: > 10 µM (inactive)
MCF7
  GI50: > 10 µM (inactive)
MDA-MB-231
  GI50: > 10 µM (inactive)
MDA-MB-435
  GI50: > 10 µM (inactive)
MDA-N
  GI50: > 10 µM (inactive)
MOLT-4
  GI50: > 10 µM (inactive)
Malme-3M
  GI50: > 10 µM (inactive)
NCI-H226
  GI50: > 10 µM (inactive)
NCI-H23
  GI50: > 10 µM (inactive)
NCI-H460
  GI50: > 10 µM (inactive)
NCI-H522
  GI50: > 10 µM (inactive)
NCI/ADR-RES
  GI50: > 10 µM (inactive)
OVCAR-3
  GI50: > 10 µM (inactive)
OVCAR-4
  GI50: > 10 µM (inactive)
OVCAR-8
  GI50: > 10 µM (inactive)
PC-3
  GI50: > 10 µM (inactive)
RPMI-8226
  GI50: > 10 µM (inactive)
RXF 393
  GI50: > 10 µM (inactive)
SF-268
  GI50: > 10 µM (inactive)
SF-295
  GI50: > 10 µM (inactive)
SF-539
  GI50: > 10 µM (inactive)
SK-MEL-28
  GI50: > 10 µM (inactive)
SK-MEL-2
  GI50: > 10 µM (inactive)
SK-MEL-5
  GI50: > 10 µM (inactive)
SK-OV-3
  GI50: > 10 µM (inactive)
SN12C
  GI50: > 10 µM (inactive)
SNB-19
  GI50: > 10 µM (inactive)
SNB-75
  GI50: > 10 µM (inactive)
SR
  GI50: > 10 µM (inactive)
SW-620
  GI50: > 10 µM (inactive)
T47D
  GI50: > 10 µM (inactive)
TK-10
  GI50: > 10 µM (inactive)
U-251
  GI50: > 10 µM (inactive)
UACC-257
  GI50: > 10 µM (inactive)
UACC-62
  GI50: > 10 µM (inactive)
UO-31
  GI50: > 10 µM (inactive)
